Experimental data: patent US8445680B2, “Tetrahydrothieno pyridines” (Merck Sharp & Dohme Corp., priority 2008, dated 2013)

Target: T1, FLAG-tagged full length PHD2 (Homo sapiens, UniProt Q9GZT9)
T1 construct: FLAG-tagged full length PHD2; FLAG; made in house; host or cells: baculovirus-infected Sf9 cells
Assay: PHD2 inhibition assay (time resolved fluorescence, HIF-1α peptide hydroxylation, VHL detection)
Format: biochemical
Settings: 0.2 μM 2-oxoglutarate, 0.5 μM HIF-1α peptide, 2 hr at room temperature; read-out: PHD2 Activity (PHD2 binding activity expressed as IC50)
Method: To each well of a 96-well plate was added 1 μL of test compound in DMSO and 20 μl of assay buffer (50 mM Tris pH 7.4/0.01% Tween-20/0.1 mg/ml bovine serum albumin/10 μM ferrous sulfate/1 mM sodium ascorbate/20 μg/ml catalase) containing 0.15 μg/ml FLAG-tagged full length PHD2 expressed in and purified from baculovirus-infected Sf9 cells. After a 30 min preincubation at room temperature, the enzymatic reactions were initiated by the addition of 4 μL of substrates (final concentrations of 0.2 μM 2-oxoglutarate and 0.5 μM HIF-1α peptide biotinyl-[…]).

T1 sequence (Q9GZT9 whole entry): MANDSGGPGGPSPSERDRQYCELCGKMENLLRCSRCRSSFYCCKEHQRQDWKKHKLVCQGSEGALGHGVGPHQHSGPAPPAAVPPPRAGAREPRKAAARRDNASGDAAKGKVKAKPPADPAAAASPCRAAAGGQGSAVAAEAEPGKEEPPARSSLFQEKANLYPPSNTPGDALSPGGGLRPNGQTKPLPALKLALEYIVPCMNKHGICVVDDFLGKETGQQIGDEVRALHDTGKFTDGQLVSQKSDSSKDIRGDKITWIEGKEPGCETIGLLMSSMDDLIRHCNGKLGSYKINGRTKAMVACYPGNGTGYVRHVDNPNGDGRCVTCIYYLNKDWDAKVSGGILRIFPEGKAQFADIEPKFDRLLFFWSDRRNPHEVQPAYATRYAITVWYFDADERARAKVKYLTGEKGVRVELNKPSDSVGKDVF

Structure (SMILES)	IC50
O=C(O)CNC(=O)c1c(O)c2c(n(Cc3ccc(Cl)nc3)c1=O)CSC2 [Example 1, N-({1-[(6-chloropyridin-3-yl)methyl]-4-hydroxy-2-oxo-1,2,5,7-tetrahydrothieno[3,4-b]pyridin-3-yl}carbonyl)glycine]	≤ 0.01 µM
O=C(O)CNC(=O)c1c(O)c2c(n(Cc3ccc(Br)cc3)c1=O)CSC2 [Example 2]	≤ 0.01 µM
N#Cc1ccc(Cn2c3c(c(O)c(C(=O)NCC(=O)O)c2=O)CSC3)cc1 [Example 3, N-{[1-(4-cyanobenzyl)-4-hydroxy-2-oxo-1,2,5,7-tetrahydrothieno[3,4-b]pyridin-3-yl]carbonyl}glycine]	≤ 0.01 µM
O=C(O)CNC(=O)c1c(O)c2c(n(Cc3ccc(C(F)(F)F)cc3)c1=O)CSC2 [Example 4, N-({4-hydroxy-2-oxo-1-[4-(trifluoromethyl)benzyl]-1,2,5,7-tetrahydrothieno[3,4-b]pyridin-3-yl]carbonyl)glycine]	≤ 0.01 µM
O=C(O)CNC(=O)c1c(O)c2c(n(Cc3ccc(C(F)(F)F)nc3)c1=O)CSC2 [Example 5, N-[(4-hydroxy-2-oxo-1-{[6-(trifluoromethyl)pyridin-3-yl]methyl]-1,2,5,7-tetrahydrothieno[3,4-b]pyridin-3-yl)carbonyl]glycine]	≤ 0.01 µM
CS(=O)(=O)c1ccc(Cn2c3c(c(O)c(C(=O)NCC(=O)O)c2=O)CSC3)cc1 [Example 6, N-({4-hydroxy-1-[4-(methylsulfonyl)benzyl]-2-oxo-1,2,5,7-tetrahydrothieno[3,4-d]pyridin-3-yl]carbonyl)glycine]	≤ 0.01 µM
O=C(O)CNC(=O)c1c(O)c2c(n(Cc3nc(-c4ccccc4)cs3)c1=O)CSC2 [Example 7, N-({4-hydroxy-2-oxo-1-[(4-phenyl-1,3-thiazol-2-yl)methyl]-1,2,5,7-tetrahydrothieno[3,4-b]pyridin-3-yl}carbonyl)glycine]	≤ 0.01 µM
CC(C)c1ccc(Cn2c3c(c(O)c(C(=O)NCC(=O)O)c2=O)CSC3)cc1 [Example 8, N-{[4-hydroxy-1-(4-isopropylbenzyl)-2-oxo-1,2,5,7-tetrahydrothieno[3,4-b]pyridin-3-yl]carbonyl]glycine]	≤ 0.01 µM
CC(C)(C)c1ccc(Cn2c3c(c(O)c(C(=O)NCC(=O)O)c2=O)CSC3)cc1 [Example 9, N-{[1-(4-tert-butylbenzyl)-4-hydroxy-2-oxo-1,2,5,7-tetrahydrothieno[3,4-b]pyridin-3-yl]caxbonyl]glycine]	≤ 0.01 µM
O=C(O)CNC(=O)c1c(O)c2c(n(Cc3noc(-c4ccccc4)n3)c1=O)CSC2 [Example 10, N-({4-hydroxy-2-oxo-1-[(5-phenyl-1,2,4-oxadiazol-3-yl)methyl]-1,2,5,7-tetrahydrothieno[3,4-b]pyridin-3-yl]carbonyl)glycine]	≤ 0.01 µM
O=C(O)CNC(=O)c1c(O)c2c(n(Cc3nc4ccccc4s3)c1=O)CSC2 [Example 11, N-{[1-(1,3-benzothiazol-2-ylmethyl)-4-hydroxy-2-oxo-1,2,5,7-tetrahydrothieno[3,4-b]pyridin-3-yl]carbonyl]glycine]	≤ 0.01 µM
O=C(O)CNC(=O)c1c(O)c2c(n(-c3ccc(Br)cc3)c1=O)CSC2 [Example 12, N-{[1-(4-bromophenyl)-4-hydroxy-2-oxo-1,2,5,7-tetrahydrothieno[3,4-b]pyridin-3-yl]carbonyl]glycine]	≤ 0.01 µM
O=C(O)CNC(=O)c1c(O)c2c(n(Cc3cc(F)cc(C(F)(F)F)c3)c1=O)CSC2 [Example 13, N-({l-[3-fluoro-5-(trifluoromethyl)benzyl]-4-hydroxy-2-oxo-1,2,5,7-tetrahydrothieno[3,4-b]pyridin-3-yl]carbonyl)glycine]	0.01 to 0.1 µM
O=C(O)CNC(=O)c1c(O)c2c(n(Cc3cccc(Cl)c3)c1=O)CSC2 [Example 14, N-{[1-(3-chlorobenzyl)-4-hydroxy-2-oxo-1,2,5,7-tetrahydrothieno[3,4-b]pyridin-3-yl]carbonyl}glycine]	≤ 0.01 µM
Cc1cc(Cl)ccc1Cn1c2c(c(O)c(C(=O)NCC(=O)O)c1=O)CSC2 [Example 15, N-{[1-(4-chloro-2-methylbenzyl)-4-hydroxy-2-oxo-1,2,5,7-tetrahydrothieno[3,4-b]pyridin-3-yl]carbonyl}glycine]	≤ 0.01 µM
O=C(O)CNC(=O)c1c(O)c2c(n(Cc3ccc(Cl)cc3)c1=O)CSC2 [Example 16, N-{[1-(4-chlorobenzyl)-4-hydroxy-2-oxo-1,2,5,7-tetrahydrothieno[3,4-b]pyridin-3-yl]carbonyl}glycine]	≤ 0.01 µM
CCc1ccc(Cn2c3c(c(O)c(C(=O)NCC(=O)O)c2=O)CSC3)cc1 [Example 17, N-{[1-(4-ethylbenzyl)-4-hydroxy-2-oxo-1,2,5,7-tetrahydrothieno[3,4-b]pyridin-3-yl]carbonyl}glycine]	≤ 0.01 µM

Structure (SMILES)	IC50
O=C(O)CNC(=O)c1c(O)c2c(n(Cc3ccc(Cl)c(C(F)(F)F)c3)c1=O)CSC2 [Example 18, N-({1-[4-chloro-3-(trifluoromethyl)benzyl]-4-hydroxy-2-oxo-1,2,5,7-tetrahydrothieno[3,4-b]pyridin-3-yl}carbonyl)glycine]	≤ 0.01 µM
O=C(O)CNC(=O)c1c(O)c2c(n(Cc3ccc(Cl)c(Cl)c3)c1=O)CSC2 [Example 19, N-{[1-(3,4-dichlorobenzyl)-4-hydroxy-2-oxo-1,2,5,7-tetrahydrothieno[3,4-b]pyridin-3-yl]carbonyl}glycine]	≤ 0.01 µM
O=C(O)CNC(=O)c1c(O)c2c(n(Cc3ccc(OC(F)(F)F)cc3)c1=O)CSC2 [Example 20, N-({4-hydroxy-2-oxo-1-[4-(trifluoromethoxy)benzyl]-1,2,5,7-tetrahydrothieno[3,4-b]pyridin-3-yl}carbonyl)glycine]	≤ 0.01 µM
O=C(O)CNC(=O)c1c(O)c2c(n(Cc3coc(-c4ccccc4)n3)c1=O)CSC2 [Example 21, N-({4-hydroxy-2-oxo-1-[(2-phenyl-1,3-oxazol-4-yl)methyl]-1,2,5,7-tetrahydrothieno[3,4-b]pyridin-3-yl}carbonyl)glycine]	≤ 0.01 µM
O=C(O)CNC(=O)c1c(O)c2c(n(Cc3cc4ccccc4s3)c1=O)CSC2 [Example 22, N-{[1-(1-benzothien-2-ylmethyl)-4-hydroxy-2-oxo-1,2,5,7-tetrahydrothieno[3,4-b]pyridin-3-yl]carbonyl}glycine]	≤ 0.01 µM
O=C(O)CNC(=O)c1c(O)c2c(n(Cc3ccc(-n4cccn4)cc3)c1=O)CSC2 [Example 23, N-({4-hydroxy-2-oxo-1-[4-(1H-pyrazol-1-yl)benzyl]-1,2,5,7-tetrahydrothieno[3,4-b]pyridin-3-yl}carbonyl)glycine]	≤ 0.01 µM
O=C(O)CNC(=O)c1c(O)c2c(n(Cc3cnn(-c4ccccc4)c3)c1=O)CSC2 [Example 24, N-({4-hydroxy-2-oxo-1-[(1-phenyl-1H-pyrazol-4-yl)methyl]-1,2,5,7-tetrahydrothieno[3,4-b]pyridin-3-yl}carbonyl)glycine]	≤ 0.01 µM
Cc1ccc(-c2ccc(Cn3c4c(c(O)c(C(=O)NCC(=O)O)c3=O)CSC4)cc2)cc1 [Example 25, N-({4-hydroxy-1-[(4′-methylbiphenyl-4-yl)methyl]-2-oxo-1,2,5,7-tetrahydrothieno[3,4-b]pyridin-3-yl}carbonyl)glycine]	≤ 0.01 µM
O=C(O)CNC(=O)c1c(O)c2c(n(Cc3cnc(-c4ccccc4F)cn3)c1=O)CSC2 [Example 26, N-[(1-{[5-(2-fluorophenyl)pyrazin-2-yl]methyl}-4-hydroxy-2-oxo-1,2,5,7-tetrahydrothieno[3,4-b]pyridin-3-yl)carbonyl]glycine]	≤ 0.01 µM
O=C(O)CNC(=O)c1c(O)c2c(n(Cc3ccc(-c4ccn[nH]4)cc3)c1=O)CSC2 [Example 27, N-({4-hydroxy-2-oxo-1-[4-(1H-pyrazol-5-yl)benzyl]-1,2,5,7-tetrahydrothieno[3,4-b]pyridin-3-yl}carbonyl)glycine]	≤ 0.01 µM
CC(=O)c1ccc(-c2ccc(Cn3c4c(c(O)c(C(=O)NCC(=O)O)c3=O)CSC4)cc2)cc1 [Example 28, N-({1-[(4′-acetylbiphenyl-4-yl)methyl]-4-hydroxy-2-oxo-1,2,5,7-tetrahydrothieno[3,4-b]pyridin-3-yl}carbonyl)glycine]	≤ 0.01 µM
O=C(O)CNC(=O)c1c(O)c2c(n(Cc3ccc(-c4ccccc4)cc3)c1=O)CSC2 [Example 29, N-{[1-(biphenyl-4-ylmethyl)-4-hydroxy-2-oxo-1,2,5,7-tetrahydrothieno[3,4-b]pyridin-3-yl]carbonyl}glycine]	≤ 0.01 µM
O=C(O)CNC(=O)c1c(O)c2c(n(Cc3ccc(-c4ccc(Cl)cc4)cc3)c1=O)CSC2 [Example 30, N-({1-[(4′-chlorobiphenyl-4-yl)methyl]-4-hydroxy-2-oxo-1,2,5,7-tetrahydrothieno[3,4-b]pyridin-3-yl}carbonyl)glycine]	≤ 0.01 µM
Cc1n[nH]c(C)c1-c1ccc(Cn2c3c(c(O)c(C(=O)NCC(=O)O)c2=O)CSC3)cc1 [Example 31, N-({1-[4-(3,5-dimethyl-1H-pyrazol-4-yl)benzyl]-4-hydroxy-2-oxo-1,2,5,7-tetrahydrothieno[3,4-b]pyridin-3-yl}carbonyl)glycine]	≤ 0.01 µM
O=C(O)CNC(=O)c1c(O)c2c(n(Cc3ccc(Oc4ccc(F)cc4)cc3)c1=O)CSC2 [Example 32, N-({l-[4-(4-fluorophenoxy)benzyl]-4-hydroxy-2-oxo-1,2,5,7-tetrahydrothieno[3,4-b]pyridin-3-yl}carbonyl)glycine]	≤ 0.01 µM
O=C(O)CNC(=O)c1c(O)c2c(n(Cc3ccc(Oc4ccc(Cl)cc4)cc3)c1=O)CSC2 [Example 33, N-({1-[4-(4-chlorophenoxy)benzyl]-4-hydroxy-2-oxo-1,2,5,7-tetrahydrothieno[3,4-b]pyridin-3-yl}carbonyl)glycine]	≤ 0.01 µM
